# Test results reported in patent US11713470B2, “Targeted gene therapies for pain and other neuro-related disorders” (University of Pittsburgh—Of the Commonwealth System of …, priority 2017, dated 2023).
# Entries after “also recorded” stand apart in the source; their conditions may differ.
# Experiments:
# mice lacking PSAM-GlyR = assay: Pain models (carrageenan, CFA, sural-SNI) in mice lacking PSAM-GlyR (ligand-alone control); assay type: in vivo, mouse; conditions: 30 mg/kg i.p.
# Source text: (§1) Methods. Animals: All animals were kept on a standard 12:12 light/dark cycle in micro-isolator caging racks (Allentown Caging) with food and water provided ad libitum. Mouse strains obtained from Jackson Laboratories include C57Bl/6J (JAX #000664), Calr^Cre (JAX #010774) and CCK^Cre (JAX #012706). Adeno-associated viruses (AAV2/8) used in these experiments: hSyn-Flex-rev-PSAM^L141F-GlyR-IRES-eGFP (7^12 vg/ml) and hSyn-Flex-rev-PSAM^L141F,Y115F-GlyR-IRES-eGFP (1.7^13 vg/ml) were custom made by UNC Vector core based on plasmid material developed by Scott Sternson and provided by Addgene. The hSyn-Flex-rev-PSAM^L141F-GlyR-IRES-eGFP (7^12 vg/ml) was used in all experiments except FIG. 8 (e,f). For these experiments, hSyn-Flex-rev-PSAM^L141F,Y115F-GlyR-IRES-eGFP (1.7^13 vg/ml) was used. Methods including: intra-spinal virus injections, paw withdrawal threshold to von Frey filaments, to cotton swab, Hargreaves, pinprick and acute pain behaviors licking, guarding, flicking are all as previously described (Peirs, C. et al. Dorsal Horn Circuits for Persistent Mechanical Pain. Neuron 87, 797-812 (2015); Seal, R. P. et al. Injury-induced mechanical hypersensitivity requires C-low threshold mechanoreceptors. Nature 462, 651-655, (2009)); For paw withdrawal threshold to pressure: mice were lightly restrained by hand such that their rear legs were allowed to freely hang. Using a Pressure Application Measurement device (Ugo Basile) the hind paw was grasped between the experimenter's forefinger and thumb (with pressure transducer on the thumb), and force was slowly applied to the paw until the mouse struggled or flicked its limb (paw withdrawal threshold, PWT). The final force in grams was recorded. Each mouse was tested on the left and right paw for three trials with a ten-minute inter-trial interval between applications, and the three results averaged for each paw. Injury Models including incision, complete Freund's adjuvant, spared nerve injury tibial and sural models, carrageenan, methylglyoxal and multi-dose streptozotocin are as previously described (Peirs, C. et al. Dorsal Horn Circuits for Persistent Mechanical Pain. Neuron 87, 797-812 (2015); Seal, R. P. et al. Injury-induced mechanical hypersensitivity requires C-low threshold mechanoreceptors. Nature 462, 651-655, (2009); Decosterd, I. and Woolf, C. J. Spared nerve injury: an animal model of persistent peripheral neuropathic pain. Pain 87, 149-158 (2000); Bierhaus, A. et al. Methylglyoxal modification of Nav1.8 facilitates nociceptive neuron firing and causes hyperalgesia in diabetic neuropathy. Nat Med 18, 926-933 (2012); Cavanaugh, D. J. et al. Distinct subsets of unmyelinated primary sensory fibers mediate behavioral responses to noxious thermal and mechanical stimuli. Proc Natl Acad Sci USA 106, 9075-9080, (2009)). Chemogenetic Activation of PSAM-GlyR Receptor: Behavior thresholds were performed as described above in AAV8-hSyn-DIO-PSAM-GlyR-IRES-GFP injected mice. PSEM^89S at 30 mg/kg was injected intraperitoneally 15 minutes prior to testing. Immunohistochemistry was performed as previously described (Peirs, C. et al. Dorsal Horn Circuits for Persistent Mechanical Pain. Neuron 87, 797-812 (2015); Seal, R. P. et al. Injury-induced mechanical hypersensitivity requires C-low threshold mechanoreceptors. Nature 462, 651-655 (2009)). α-bungarotoxin conjugated to Alexa-647 (1:1000; ThermoFisher B35450), α-bungarotoxin conjugated to Alexa-488 (1:1000; ThermoFisher B13422). Imaging: Spinal cord sections were imaged with a confocal laser-scanning microscope (Nikon A1R) and Nikon Elements software using 405-, 488-, 561- and 640 nm excitation laser light. In order to suppress emission crosstalk, the microscope was configured to perform all scanning in sequential mode. Z-series were scanned at 20× magnification with an oil immersion lens and a z-step of 5.0 μm. Quantification and Statistical Analysis: all data are reported as mean±SEM. For acute behaviors, a two-tailed Student's t-test was used. […]
# [1] = molecular target: T1, PSAM-GlyR in calretinin neurons in the dorsal horn lamina II (Homo sapiens, UniProt P23415+P36544, L141F); assay: Inflammatory pain models in Calr^Cre mice expressing PSAM-GlyR in the dorsal horn; assay type: in vivo, mouse; conditions: 30 mg/kg i.p.
# T1 construct: plasmid from Addgene (Sternson); host or cells: mouse dorsal horn neurons transduced with Cre-dependent AAV2/8 (Tlx3^Cre, CCK^Cre or Calr^Cre mice)
# Source text: as §1, with “Nat Med 18, 926-933 (2012); Cavanaugh, D. J. et al. Distinct subsets of unmyelinated primary sensory fibers mediate behavioral responses to noxious thermal and mechanical stimuli. Proc Natl Acad Sci USA 106, 9075-9080, (2009)). Chemogenetic Activation of PSAM-GlyR Receptor: Behavior thresholds were performed as described above in AAV8-hSyn-DIO-PSAM-GlyR-IRES-GFP injected mice. PSEM^89S at 30 mg/kg was injected intraperitoneally 15 minutes prior to testing. Immunohistochemistry was performed as previously described (Peirs, C. et al. Dorsal Horn Circuits for Persistent Mechanical Pain. Neuron 87, 797-812 (2015); Seal, R. P. et al. Injury-induced mechanical hypersensitivity requires C-low threshold mechanoreceptors. Nature 462, 651-655 (2009)). α-bungarotoxin conjugated to Alexa-647 (1:1000; ThermoFisher B35450), α-bungarotoxin conjugated to Alexa-488 (1:1000; ThermoFisher B13422). Imaging: Spinal cord sections were imaged with a confocal laser-scanning microscope (Nikon A1R) and Nikon Elements software using 405-, 488-, 561- and 640 nm excitation laser light. In order to suppress emission crosstalk, the microscope was configured to perform all scanning in sequential mode. Z-series were scanned at 20× magnification with an oil immersion lens and a z-step of 5.0 μm.” left out, “mean±SEM.” for “mean±SEM. For acute behaviors, a two-tailed Student's t-test was used.”
# T1 sequence (P36544+P23415 fused P36544:L141F): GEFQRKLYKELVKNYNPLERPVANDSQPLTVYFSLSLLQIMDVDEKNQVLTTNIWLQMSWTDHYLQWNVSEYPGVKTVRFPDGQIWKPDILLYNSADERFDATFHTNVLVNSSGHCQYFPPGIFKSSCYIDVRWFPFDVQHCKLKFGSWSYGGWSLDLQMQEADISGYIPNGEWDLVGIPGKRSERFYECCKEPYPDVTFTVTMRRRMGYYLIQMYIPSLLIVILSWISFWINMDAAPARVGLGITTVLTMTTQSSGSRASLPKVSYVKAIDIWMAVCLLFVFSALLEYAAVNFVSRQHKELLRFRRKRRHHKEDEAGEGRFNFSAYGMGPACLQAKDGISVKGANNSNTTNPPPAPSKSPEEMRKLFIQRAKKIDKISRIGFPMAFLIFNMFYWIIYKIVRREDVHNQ
smiles,measurement,setting,value
COc1ccc(OC)c(C(=O)NC2CN3CCC2CC3)c1 (stereo not shown) [PSEM^89S],dynamic allodynia induced by the sural-SNI model,mice lacking PSAM-GlyR,not altered
same,punctate allodynia induced by the sural-SNI model,mice lacking PSAM-GlyR,not altered
same,dynamic allodynia induced by CFA,mice lacking PSAM-GlyR; p>0.999,not altered; also recorded: no effect
same,"heat hypersensitivity, carrageenan pain model",mice lacking PSAM-GlyR; p>0.999,not altered; also recorded: no effect
same,"mechanical allodynia, carrageenan pain model",mice lacking PSAM-GlyR; p>0.999,not altered; also recorded: no effect
same,punctate allodynia induced by CFA,mice lacking PSAM-GlyR; p>0.999,not altered; also recorded: no effect
same,"mechanical allodynia (punctate), carrageenan model","[1]; 24 hours after carrageenan, p=0.0074",reverses; also recorded: significantly reversed
same,"mechanical allodynia (punctate), CFA model","[1]; 5 days after CFA, ipsilateral hindpaw, p=0.0026",reverses; also recorded: complete reversal
same,"dynamic mechanical allodynia, incision model",[1]; p=0.0001,reverses
same,"punctate mechanical allodynia, incision model",[1]; p=0.0028,reverses
